# Reference: US20020176889A1 (priority 2000, published 2002)
# Structures can show the parent of a compound that is named as a salt.
# Assay: pH of saturated aqueous solution
# Format: physicochemical
# From the text: The pH of the composition can be controlled or adjusted by the proper selection of excipients. It should be borne in mind that amlodipine maleate is slightly acidic. […] An example of a pH-inert excipient is microcrystalline cellulose.
smiles,measurement,value
CCOC(=O)C1=C(COCCN)NC(C)=C(C(=O)OC)C1c1ccccc1Cl (stereo not shown) [amlodipine maleate],pH as a saturated aqueous solution,about 4.8
